# Measurements: US7491728B2, “Pyrimidinone compounds as calcilytics” (SmithKline Beecham Corp., priority 2004, dated 2009)
# Experiment: Bolus i.v. injection in normal conscious rats: plasma PTH and ionized calcium levels
# Assay type: in vivo, male Sprague-Dawley rats
# Description: FIG. 1 is a graph which depicts the effect of bolus i.v. injection of the compound of Example 9 on plasma PTH levels in normal rats.
# 5-Ethyl-3-[2-(2-fluoro-phenyl)-ethyl]-2-(2-hydroxy-phenyl)-6-methyl-3H-pyrimidin-4-one (1 or 3 μmol/kg) or vehicle was administered by intravenous injection over about 15 seconds to normal conscious male Sprague-Dawley rats with chronic indwelling arterial and venous catheters. Arterial blood samples were collected at 30 min and immediately before, and at 1, 5, 10, and 30 min after the start of the injection for measurement of the levels of parathyroid hormone (PTH) and ionized calcium (Ca^2+) in plasma. PTH was measured using a specific rat PTH (1-84) ELISA (Immutopics, San Clemente, Calif.). […] Plasma PTH levels had returned to pre-dose levels by 10 min after the injection (FIG. 1).
compound,measurement,setting,value
"CCc1c(C)nc(-c2ccccc2O)n(CCc2ccccc2F)c1=O [Example 9, 5-Ethyl-3-[2-(2-fluoro-phenyl)-ethyl]-2-(2-hydroxy-phenyl)-6-methyl-3H-pyrimidin-4-one]",effect on plasma PTH levels,"1 or 3 μmol/kg i.v. over about 15 seconds, normal conscious male Sprague-Dawley rats, rat PTH (1-84) ELISA, FIG. 1","rapid, but transient dose-related increase"
same,time after injection at which plasma PTH levels were maximal,"1 or 3 μmol/kg i.v., rats",1 min
same,time after injection by which plasma PTH levels had returned to pre-dose levels,"1 or 3 μmol/kg i.v., rats",≤ 10 min
same,changes in plasma Ca2+ levels,"1 or 3 μmol/kg i.v., rats, samples up to 30 min after injection (not shown)",no consistent changes
